# According to patent US20090227619A1, “Harmine derivatives, intermediates used in their preparations, preparation processes and use therefo” (priority 2003, published 2009):
# Like-named read-outs stand apart in the source and are kept apart here.
# Legend:
# [1] = tested on: BGC-823; assay: In vitro cytotoxicity, IC50 by MTT method, BGC-823; assay type: cell-based
# Summary of the method: (§1)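 Cells in RPMI1640 with 10% FBS at 37° C, 5% CO2 were seeded at 10^5/ml and exposed to a compound concentration gradient for 48 h, at least three replicates, solvent controls.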
# [2] = tested on: CT-DNA; assay: DNA thermal denaturation, determination of ΔTm; assay type: binding; settings: 20 uM compound, Tm of CT-DNA alone 61° C.
# Description: Experiments were carried out in PE buffer (1 mM Na2HPO4, 0.1 mM EDTA, pH 7.6) in a thermostatically controlled cell hold, and the quartz cuvette (1 cm path length) was heated by circulating water at a heating rate of 0.5° C./min from 25 to 95° C. Amsacrine and Doxorubicin Hydrochloride were used as standards. In all cases, the concentration of CT-DNA was 15 ug/ml. The ‘melting’ temperature Tm was taken as the mid-point of the hyperchromic transition.
# ΔTm=Tm^drug-DNA complex−Tm^DNA alone
# The ΔTm of each compound was calculated, Experiments were repeated three times, and an average value was calculated.
# [3] = tested on: Hela; assay: In vitro cytotoxicity, IC50 by MTT method, Hela; assay type: cell-based
# Summary of the method: as §1
# [4] = tested on: PLA-801; assay: In vitro cytotoxicity, IC50 by MTT method, PLA-801; assay type: cell-based
# Summary of the method: as §1
# [5] = tested on: Lovo; assay: In vitro cytotoxicity, IC50 by MTT method, Lovo; assay type: cell-based
# Summary of the method: as §1
# [6] = tested on: Bel-7402; assay: In vitro cytotoxicity, IC50 by MTT method, Bel-7402; assay type: cell-based
# Summary of the method: as §1
# [7] = tested on: NIH3T3; assay: In vitro cytotoxicity, IC50 by MTT method, NIH3T3; assay type: cell-based
# Summary of the method: as §1
# [8] = tested on: HepG2; assay: In vitro cytotoxicity, IC50 by MTT method, HepG2; assay type: cell-based, human
# Summary of the method: as §1
# [9] = tested on: CT-DNA; assay: UV absorption spectrum method with CT-DNA; assay type: binding; settings: CT-DNA 40 ug/ml, compound 20 uM, 37° C. for 2 h, OD at 260 nm
# Description: Compounds to be tested (20 uM) were added into the PE buffer solution, and its scan curve was identified by the spectrograph at a wavelength of from 200 to 400 nm. CT-DNA (40 ug/ml) and compounds to be tested (20 uM) were added into the PE buffer solution. The mixture was cultured at 37° C. for 2 h, and its scan curve was identified by the UV spectrograph at a wavelength of from 200 to 400 nm. […] After that, the OD value at 260 nm of the scan curve of the medicaments tested and that of the CT-DNA mixture OD value at 260 nm of the scan curve were calculated and compared to determine the influences of the medicaments tested on the UV absorption spectrum of the DNA molecules.
# [10] = Homo sapiens, BGC-823, BGC823 cell strain, read-out: IC50 BGC823
# [11] = Homo sapiens, Hela cell strain, read-out: IC50 Hela
# [12] = PLA-801 cell strain, read-out: IC50 PLA-801
# [13] = Homo sapiens, Lovo cell strain, read-out: IC50 Lovo
# [14] = Homo sapiens, Bel-7402, Bel7402 cell strain, read-out: IC50 Bel7402
# [15] = Mus musculus, NIH3T3 cell strain, read-out: IC50 NIH3T3
# [16] = Homo sapiens, HepG2 cell strain, read-out: IC50 HepG2
# [17] = CT-DNA 15 ug/ml, PE buffer pH 7.6
SMILES,ΔTm ([2]; CT-DNA thermal denaturation),"IC50 [1, 10]","IC50 [3, 11]","IC50 [4, 12]","IC50 [5, 13]",melting point,"IC50 [6, 14]","IC50 [7, 15]","IC50 [8, 16]",other results
"COc1ccc2c3ccnc(C)c3n(CCO)c2c1 [Compound 5, 9-hydroxyethyl-7-methoxy-1-methyl-β-carboline]",5.9 °C,,,,,,,,,"IC50 ([1]; Homo sapiens, BGC-823, BGC823, MTT, read-out: IC50): 200 µM; IC50 ([3]; Homo sapiens, Hela, MTT, read-out: IC50): 30 µM; IC50 ([4]; PLA-801, MTT, read-out: IC50): 80 µM; IC50 ([5]; Homo sapiens, Lovo, MTT, read-out: IC50): 30 µM; IC50 ([6]; Homo sapiens, Bel-7402, BeI7402, MTT, read-out: IC50): 240 µM; IC50 ([7]; Mus musculus, NIH3T3, MTT, read-out: IC50): 80 µM; IC50 ([8]; Homo sapiens, HepG2, MTT, read-out: IC50): 310 µM"
"COc1ccc2c3ccnc(C)c3n(Cc3c(F)c(F)c(F)c(F)c3F)c2c1 [Compound 7, 9-(2′,3′,4′,5′,6′-pentafluoro)benzyl-7-methoxy-1-methyl-β-carboline]",7.5 °C,,,,,,,,,"IC50 ([1]; BGC823, MTT, read-out: IC50): 20 µM; IC50 ([3]; Hela, MTT, read-out: IC50): 40 µM; IC50 ([4]; PLA-801, MTT, read-out: IC50): 420 µM; IC50 ([5]; Lovo, MTT, read-out: IC50): 40 µM; IC50 ([6]; BeI7402, MTT, read-out: IC50): 40 µM; IC50 ([7]; NIH3T3, MTT, read-out: IC50): 50 µM; IC50 ([8]; HepG2, MTT, read-out: IC50): 50 µM"
"CCCCOC(=O)c1cc2c3ccccc3n(CC)c2cn1 [Compound 39, butyl 9-ethyl-β-carboline-3-carboxylate]",1.6 °C,80 µM,70 µM,110 µM,80 µM,86 to 88 °C,70 µM,80 µM,70 µM,
"CC(=O)COc1cc2c3ccccc3n(Cc3ccccc3)c2cn1 [Compound 43, 9-benzyl-3-acetylmethoxy-β-carboline]",,> 3000 µM,500 µM,250 µM,> 3000 µM,141 to 142 °C,130 µM,> 3000 µM,300 µM,Influence on the UV absorption of DNA [9]: increase the UV absorption of DNA
"Cc1nc(C(=O)O)cc2c3ccccc3n(C)c12 [Compound 62, 1,9-dimethyl-β-carboline-3-carboxylic acid]",,640 µM,1110 µM,2350 µM,440 µM,262 to 264 °C,1500 µM,630 µM,1380 µM,
"CCn1c2ccccc2c2cc(C(=O)O)nc(C)c21 [Compound 63, 9-ethyl-1-methyl-β-carboline-3-carboxylic acid]",,1660 µM,970 µM,2330 µM,590 µM,243 to 245 °C,1820 µM,710 µM,2800 µM,
"Cc1nc(C(=O)O)cc2c3ccccc3n(CCCc3ccccc3)c12 [Compound 65, 9-phenylpropyl-1-methyl-β-carboline-3-carboxylic acid]",,270 µM,220 µM,210 µM,50 µM,186 to 188 °C,560 µM,110 µM,140 µM,
"CCCc1nc(C(=O)OCC)cc2c3ccccc3n(C)c12 [Compound 68, ethyl 1-propyl-9-methyl-β-carboline-3-carboxylate]",,110 µM,1360 µM,140 µM,60 µM,108 to 109 °C,460 µM,80 µM,100 µM,
"CCCc1nc(C(=O)OCC)cc2c3ccccc3n(CC)c12 [Compound 69, ethyl 1-propyl-9-ethyl-β-carboline-3-carboxylate]",,230 µM,90 µM,710 µM,100 µM,86 to 87 °C,330 µM,100 µM,110 µM,
"CCCc1nc(C(=O)OCC)cc2c3ccccc3n(Cc3ccccc3)c12 [Compound 70, ethyl 9-benzyl-1-propyl-β-carboline-3-carboxylate]",,1010 µM,810 µM,160 µM,1170 µM,158 to 159 °C,1010 µM,1570 µM,790 µM,
"CCCc1nc(C(=O)OCC)cc2c3ccccc3n(CCCc3ccccc3)c12 [Compound 71, ethyl 9-phenylpropyl-1-propyl-β-carboline-3-carboxylate]",,1320 µM,60 µM,260 µM,60 µM,92 to 93 °C,910 µM,190 µM,120 µM,
"CCCc1nc(C(=O)O)cc2c3ccccc3n(C)c12 [Compound 72, 9-methyl-1-propyl-β-carboline-3-carboxylic acid]",,540 µM,960 µM,1400 µM,210 µM,181 to 183 °C,> 3000 µM,570 µM,1170 µM,
"CCCc1nc(C(=O)O)cc2c3ccccc3n(CC)c12 [Compound 73, 1-propyl-9-ethyl-β-carboline-3-carboxylic acid]",,390 µM,420 µM,710 µM,260 µM,189 to 191 °C,570 µM,390 µM,540 µM,
"COC(=O)c1cc2c3ccccc3n(C)c2c(-c2ccccc2)n1 [Compound 76, methyl 1-phenyl-9-methyl-β-carboline-3-carboxylate]",,> 3000 µM,> 3000 µM,> 3000 µM,> 3000 µM,205 to 207 °C,620 µM,> 3000 µM,> 3000 µM,
"CCn1c2ccccc2c2cc(C(=O)OC)nc(-c3ccccc3)c21 [Compound 77, methyl 1-phenyl-9-ethyl-β-carboline-3-carboxylate]",,> 3000 µM,2660 µM,> 3000 µM,70 µM,169 to 170 °C,380 µM,140 µM,> 3000 µM,
"c1ccc2c(c1)[nH]c1cnccc12 [Compound 80, β-carboline]",3.1 °C,,,,,,,,,"IC50 ([1]; Homo sapiens, BGC-823, read-out: IC50 BGC823): 270 µM; IC50 ([3]; Homo sapiens, HeLa, read-out: IC50 Hela): 350 µM; IC50 ([4]; read-out: IC50 PLA-801): 20 µM; IC50 ([5]; Homo sapiens, LoVo, read-out: IC50 Lovo): 40 µM; IC50 ([6]; Homo sapiens, Bel-7402, read-out: IC50 Bel7402): 380 µM; IC50 ([7]; Mus musculus, NIH3T3, read-out: IC50 NIH3T3): 20 µM; IC50 ([8]; Homo sapiens, HepG2, read-out: IC50 HepG2): 230 µM"
"Cn1c2ccccc2c2ccncc21 [Compound 81, 9-methyl-β-carboline]",3.3 °C,200 µM,330 µM,220 µM,220 µM,,300 µM,120 µM,100 µM,
"CCn1c2ccccc2c2ccncc21 [Compound 82, 9-ethyl-β-carboline]",4.2 °C,170 µM,230 µM,130 µM,160 µM,,310 µM,100 µM,170 µM,Influence on the UV absorption of DNA [9]: reduce the UV absorption of DNA
"COc1cccc2c1C(=O)c1c(O)c3c(c(O)c1C2=O)C[C@@](O)(C(=O)CO)C[C@@H]3O[C@H]1C[C@H](N)[C@H](O)[C@H](C)O1 [adriamycin, reference compound]",10.8 °C,,,,,,,,,"ΔTm [2, 17]: 10.8 °C; Influence on the UV absorption of DNA [9]: reduce the UV absorption of DNA"
"CC[C@@]1(O)C(=O)OCc2c1cc1n(c2=O)Cc2cc3ccccc3nc2-1 [camptothecin, reference compound]",−2.5 °C,,,,,,,,,"ΔTm [2, 17]: −2.5 °C; Influence on the UV absorption of DNA [9]: increase the UV absorption of DNA"
